The numbers were not newly measured in patent US20100021530A1, “ENHANCED TRANS-KERATIN DRUG DELIVERY” (Innovation Biomedical Devices, Inc., priority 2008, published 2010), which cites them from elsewhere.

Each structure is given as a SMILES string.

The series deals with Tinea unguium or onychomycosis (nail fungus). The note with it: topical, after a year of treatment, at best.

As for `Cc1cc(C2CCCCC2)n(O)c(=O)c1` [ciclopirox], the cure rate entry is on record as “around 20%”.
